# Source: the supplement of paper PMC10307832
# Tests used:
# Assay in all cases: relative viability (nuclei count vs DMSO), 5 days (fraction); higher = more cells survive
# PC-3 [JPC-3] = tested on: PC-3 [JPC-3]
# Outline: (§1)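 Relative viability is defined as nuclei in treated wells over nuclei in vehicle wells. Duplicate plates were run and medians reported. Lung cancer cell lines in 1536-well plates were dosed by pin tool one day after seeding, with one drug or with a fixed anchor-drug dose plus five library-drug doses (not always all listed) in √10 steps, and nuclei were counted after 5 days.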
# NCI-H2342 = tested on: NCI-H2342
# Outline: as §1
# NCI-H647 = tested on: NCI-H647
# Outline: as §1
# NCI-H1666 = tested on: NCI-H1666
# Outline: as §1
# NCI-H2085 = tested on: NCI-H2085
# Outline: as §1
# NCI-H2170 = tested on: NCI-H2170
# Outline: as §1
# HCC-44 = tested on: HCC-44
# Outline: as §1
# LOU-NH91 = tested on: LOU-NH91
# Outline: as §1
# NCI-H650 = tested on: NCI-H650
# Outline: as §1
# 201T = tested on: 201T
# Outline: as §1
# EKVX = tested on: EKVX
# Outline: as §1
# BEN = tested on: BEN
# Outline: as §1
# HCC-827 = tested on: HCC-827
# Outline: as §1
# NCI-H1975 = tested on: NCI-H1975
# Outline: as §1
# NCI-H1437 = tested on: NCI-H1437
# Outline: as §1
# NCI-H2087 = tested on: NCI-H2087
# Outline: as §1
# LU99A = tested on: LU99A
# Outline: as §1
# H3255 = tested on: H3255
# Outline: as §1
# LCLC-97TM1 = tested on: LCLC-97TM1
# Outline: as §1
# EPLC-272H = tested on: EPLC-272H
# Outline: as §1
smiles,measurement,setting,value
Nc1ccn([C@@H]2O[C@H](CO)[C@@H](O)[C@@H]2O)c(=O)n1 [Cytarabine] + NC(=O)Nc1cc(-c2cccc(F)c2)sc1C(=O)N[C@H]1CCCNC1 [AZD7762] (partner 0.2 µM),relative viability,PC-3 [JPC-3]; first compound 0.005 µM,0.746
same,relative viability,PC-3 [JPC-3]; first compound 0.01581 µM,0.809
same,relative viability,PC-3 [JPC-3]; first compound 0.05 µM,0.676
same,relative viability,PC-3 [JPC-3]; first compound 0.1581 µM,0.395
same,relative viability,PC-3 [JPC-3]; first compound 0.5 µM,0.425
same,relative viability,NCI-H2342; first compound 0.005 µM,0.472
same,relative viability,NCI-H2342; first compound 0.01581 µM,0.385
same,relative viability,NCI-H2342; first compound 0.05 µM,0.397
same,relative viability,NCI-H2342; first compound 0.1581 µM,0.377
same,relative viability,NCI-H2342; first compound 0.5 µM,0.301
same,relative viability,NCI-H647; first compound 0.005 µM,0.188
same,relative viability,NCI-H647; first compound 0.01581 µM,0.0767
same,relative viability,NCI-H647; first compound 0.05 µM,0.0765
same,relative viability,NCI-H647; first compound 0.1581 µM,0.0321
same,relative viability,NCI-H647; first compound 0.5 µM,0.0304
same,relative viability,NCI-H1666; first compound 0.005 µM,0.943
same,relative viability,NCI-H1666; first compound 0.01581 µM,0.768
same,relative viability,NCI-H1666; first compound 0.05 µM,0.666
same,relative viability,NCI-H1666; first compound 0.1581 µM,0.444
same,relative viability,NCI-H1666; first compound 0.5 µM,0.413
same,relative viability,NCI-H2085; first compound 0.005 µM,0.997
same,relative viability,NCI-H2085; first compound 0.01581 µM,0.997
same,relative viability,NCI-H2085; first compound 0.05 µM,0.956
same,relative viability,NCI-H2085; first compound 0.1581 µM,0.694
same,relative viability,NCI-H2085; first compound 0.5 µM,0.516
same,relative viability,NCI-H2170; first compound 0.005 µM,0.666
same,relative viability,NCI-H2170; first compound 0.01581 µM,0.515
same,relative viability,NCI-H2170; first compound 0.05 µM,0.347
same,relative viability,NCI-H2170; first compound 0.1581 µM,0.173
same,relative viability,NCI-H2170; first compound 0.5 µM,0.136
same,relative viability,HCC-44; first compound 0.005 µM,1.07
same,relative viability,HCC-44; first compound 0.01581 µM,0.916
same,relative viability,HCC-44; first compound 0.05 µM,0.476
same,relative viability,HCC-44; first compound 0.1581 µM,0.332
same,relative viability,HCC-44; first compound 0.5 µM,0.249
same,relative viability,LOU-NH91; first compound 0.005 µM,0.645
same,relative viability,LOU-NH91; first compound 0.01581 µM,0.803
same,relative viability,LOU-NH91; first compound 0.05 µM,0.708
same,relative viability,LOU-NH91; first compound 0.1581 µM,0.548
same,relative viability,LOU-NH91; first compound 0.5 µM,0.252
same,relative viability,NCI-H650; first compound 0.005 µM,0.843
same,relative viability,NCI-H650; first compound 0.01581 µM,0.26
same,relative viability,NCI-H650; first compound 0.05 µM,0.19
same,relative viability,NCI-H650; first compound 0.1581 µM,0.146
same,relative viability,NCI-H650; first compound 0.5 µM,0.162
same,relative viability,201T; first compound 0.005 µM,0.635
same,relative viability,201T; first compound 0.01581 µM,0.596
same,relative viability,201T; first compound 0.05 µM,0.653
same,relative viability,201T; first compound 0.1581 µM,0.342
same,relative viability,201T; first compound 0.5 µM,0.265
same,relative viability,EKVX; first compound 0.005 µM,0.697
same,relative viability,EKVX; first compound 0.01581 µM,0.676
same,relative viability,EKVX; first compound 0.05 µM,0.329
same,relative viability,EKVX; first compound 0.5 µM,0.67
same,relative viability,BEN; first compound 0.005 µM,0.588
same,relative viability,BEN; first compound 0.01581 µM,0.425
same,relative viability,BEN; first compound 0.05 µM,0.296
same,relative viability,BEN; first compound 0.1581 µM,0.259
same,relative viability,BEN; first compound 0.5 µM,0.241
same,relative viability,HCC-827; first compound 0.005 µM,0.17
same,relative viability,HCC-827; first compound 0.01581 µM,0.168
same,relative viability,HCC-827; first compound 0.05 µM,0.13
same,relative viability,HCC-827; first compound 0.1581 µM,0.14
same,relative viability,HCC-827; first compound 0.5 µM,0.148
same,relative viability,NCI-H1975; first compound 0.005 µM,0.679
same,relative viability,NCI-H1975; first compound 0.01581 µM,0.581
same,relative viability,NCI-H1975; first compound 0.05 µM,0.388
same,relative viability,NCI-H1975; first compound 0.1581 µM,0.321
same,relative viability,NCI-H1975; first compound 0.5 µM,0.234
same,relative viability,NCI-H1437; first compound 0.005 µM,1.04
same,relative viability,NCI-H1437; first compound 0.01581 µM,0.549
same,relative viability,NCI-H1437; first compound 0.05 µM,0.321
same,relative viability,NCI-H1437; first compound 0.1581 µM,0.167
same,relative viability,NCI-H1437; first compound 0.5 µM,0.146
same,relative viability,NCI-H2087; first compound 0.005 µM,1.28
same,relative viability,NCI-H2087; first compound 0.01581 µM,1.56
same,relative viability,NCI-H2087; first compound 0.05 µM,1.11
same,relative viability,NCI-H2087; first compound 0.1581 µM,0.709
same,relative viability,NCI-H2087; first compound 0.5 µM,0.231
same,relative viability,LU99A; first compound 0.005 µM,0.444
same,relative viability,LU99A; first compound 0.01581 µM,0.362
same,relative viability,LU99A; first compound 0.05 µM,0.305
same,relative viability,LU99A; first compound 0.1581 µM,0.352
same,relative viability,LU99A; first compound 0.5 µM,0.115
same,relative viability,H3255; first compound 0.005 µM,0.945
same,relative viability,H3255; first compound 0.01581 µM,0.812
same,relative viability,H3255; first compound 0.05 µM,0.764
same,relative viability,H3255; first compound 0.1581 µM,0.583
same,relative viability,H3255; first compound 0.5 µM,0.551
same,relative viability,LCLC-97TM1; first compound 0.005 µM,0.14
same,relative viability,LCLC-97TM1; first compound 0.01581 µM,0.0846
same,relative viability,LCLC-97TM1; first compound 0.05 µM,0.0944
same,relative viability,LCLC-97TM1; first compound 0.1581 µM,0.0643
same,relative viability,LCLC-97TM1; first compound 0.5 µM,0.0575
same,relative viability,EPLC-272H; first compound 0.005 µM,0.335
same,relative viability,EPLC-272H; first compound 0.01581 µM,0.273
same,relative viability,EPLC-272H; first compound 0.05 µM,0.117
same,relative viability,EPLC-272H; first compound 0.1581 µM,0.0659
same,relative viability,EPLC-272H; first compound 0.5 µM,0.0636
